Reference: paper PMC9146698, “Mammalian Brain Ca^2+ Channel Activity Transplanted into Xenopus laevis Oocytes” (Membranes, 2022)

System: T1, GABA receptor
T1 construct: gene Gabra1
Assay: two-electrode voltage clamp, membrane-transplanted oocytes
Format: cell-based, Mus musculus
Settings: block of GABA-induced Cl- current; n = 5; data not shown

SMILES: CN1CCc2cc3c(cc2[C@H]1[C@@H]1OC(=O)c2c1ccc1c2OCO1)OCO3 [biccuculine]
- % block at 100 μM: 87 ± 2%
